# Test results from ChEMBL document CHEMBL5143597, “Design and synthesis of novel spirocyclic carboxylic acids as potent and orally bioavailable DGAT1 inhibitors and their biological evaluation” (Bioorg Med Chem Lett, 2022).
# How the values were obtained:
# CYP2C9 = CYP2C9 (Homo sapiens, UniProt P11712); test: Inhibition of recombinant human CYP2C9 at 25 uM by fluorescence plate reader analysis; type: ADME
# CYP3A4 = CYP3A4 (Homo sapiens, UniProt P08684); test: Inhibition of recombinant human CYP3A4 at 25 uM by fluorescence plate reader analysis; type: ADME
# CYP1A2 = target: T1, CYP1A2 (Homo sapiens, UniProt P05177); test: Inhibition of recombinant human CYP1A2 at 25 uM by fluorescence plate reader analysis; type: ADME
# T1 sequence (P05177 whole entry): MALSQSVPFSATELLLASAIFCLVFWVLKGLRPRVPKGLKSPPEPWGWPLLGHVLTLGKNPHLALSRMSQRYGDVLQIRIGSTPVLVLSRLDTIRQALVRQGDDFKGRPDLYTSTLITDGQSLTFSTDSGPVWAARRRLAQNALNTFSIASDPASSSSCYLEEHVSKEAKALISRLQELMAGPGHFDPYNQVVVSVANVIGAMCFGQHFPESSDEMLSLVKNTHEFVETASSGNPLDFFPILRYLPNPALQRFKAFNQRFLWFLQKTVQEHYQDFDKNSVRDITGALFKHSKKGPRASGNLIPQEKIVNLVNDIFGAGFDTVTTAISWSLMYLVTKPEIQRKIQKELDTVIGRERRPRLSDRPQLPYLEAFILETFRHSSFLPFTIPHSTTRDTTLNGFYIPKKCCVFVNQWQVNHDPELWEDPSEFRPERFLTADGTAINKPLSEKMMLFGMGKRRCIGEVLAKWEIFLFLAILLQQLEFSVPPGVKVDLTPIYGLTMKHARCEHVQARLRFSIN
# [1] = Solubility of compound in PBS at pH 4 incubated for 4 hrs under shaking condition by UV absorbance based analysis; type: physicochemical
# [2] = Solubility of compound in PBS at pH 2 incubated for 4 hrs under shaking condition by UV absorbance based analysis; type: physicochemical
# [3] = Solubility of compound in PBS at pH 9 incubated for 4 hrs under shaking condition by UV absorbance based analysis; type: physicochemical
# CYP2D6 = CYP2D6 (Homo sapiens, UniProt P10635); test: Inhibition of recombinant human CYP2D6 at 10 uM by fluorescence plate reader analysis; type: ADME
# [4] = Solubility of compound in PBS at pH 7.4 incubated for 4 hrs under shaking condition by UV absorbance based analysis; type: physicochemical
# [5] = Metabolic stability in rat liver microsomes assessed as parent compound remaining at 1 uM and measured at 30 mins by LC-MS/MS analysis; type: ADME, Microsome; details: read-out: Stability
# [6] = Metabolic stability in human liver microsomes assessed as parent compound remaining at 1 uM and measured at 30 mins by LC-MS/MS analysis; type: ADME, Microsome; details: read-out: Stability
# [7] = target: T2, Diacylglycerol O-acyltransferase 1 (Homo sapiens, UniProt O75907); test: Inhibition of human DGAT1 in serum starved HEK293 cells assessed as inhibition of triglyceride synthesis incubated for 20 mins followed by 13C-addition of 13C-oleic acid pre-complexed with BSA for 120 mins by LC-MS-based mass spectrophotometric analysis; type: cell-based
# T2 sequence (O75907 whole entry): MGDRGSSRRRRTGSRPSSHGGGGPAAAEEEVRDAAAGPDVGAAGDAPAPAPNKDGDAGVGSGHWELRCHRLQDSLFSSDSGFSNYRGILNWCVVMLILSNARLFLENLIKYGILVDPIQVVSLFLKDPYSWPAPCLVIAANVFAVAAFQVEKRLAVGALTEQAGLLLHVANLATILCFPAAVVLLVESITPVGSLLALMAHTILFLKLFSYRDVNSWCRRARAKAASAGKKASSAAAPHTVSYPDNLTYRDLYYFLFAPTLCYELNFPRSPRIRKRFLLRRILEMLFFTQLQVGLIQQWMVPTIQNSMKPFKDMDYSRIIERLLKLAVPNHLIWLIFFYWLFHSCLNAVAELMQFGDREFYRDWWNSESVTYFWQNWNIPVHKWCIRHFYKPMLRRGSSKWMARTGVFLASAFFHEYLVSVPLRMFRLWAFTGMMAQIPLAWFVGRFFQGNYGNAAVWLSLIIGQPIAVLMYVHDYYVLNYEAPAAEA
# hERG (KCNH2) = hERG (KCNH2) (Homo sapiens, UniProt Q12809); test: Displacement of [3H]astemizole from human ERG expressed in HEK293 cell membrane at 10 uM for 2 hrs by Radiometric displacement assay; type: toxicity; details: HEK293 cell membranes that express hERG, probe [3H]astemizole
# [8] = Plasma protein binding in mouse; type: ADME, cell-free; details: read-out: PPB (converted)
# [9] = Metabolic stability in mouse liver microsomes assessed as parent compound remaining at 1 uM and measured at 30 mins by LC-MS/MS analysis; type: ADME, Microsome; details: read-out: Stability
# [10] = Plasma protein binding in rat; type: ADME, cell-free; details: read-out: PPB
# [11] = Clearance in C57BL/6 mouse at 3 mg/kg, iv or 10 mg/kg, po and measured up to 24 hrs by LC-MS/MS analysis; type: ADME, organism-based; details: in vivo
# [12] = Drug distribution in C57BL/6 mouse adipose tissue 10 mg/kg, po and measured at 1 hrs post dose by LC-MS/MS analysis; type: ADME, organism-based; details: read-out: Ct
# [13] = Drug distribution in C57BL/6 mouse plasma 10 mg/kg, po and measured at 1 hrs post dose by LC-MS/MS analysis; type: ADME, organism-based
# [14] = Tmax in C57BL/6 mouse at 3 mg/kg, iv or 10 mg/kg, po and measured up to 24 hrs by LC-MS/MS analysis; type: ADME, organism-based; details: in vivo
# [15] = Drug distribution in C57BL/6 mouse skeletal muscle 10 mg/kg, po and measured at 8 hrs post dose by LC-MS/MS analysis; type: ADME, organism-based, Skeletal muscle tissue; details: read-out: Ct
# [16] = Volume of distribution at steady state in C57BL/6 mouse at 3 mg/kg, iv or 10 mg/kg, po and measured up to 24 hrs by LC-MS/MS analysis; type: ADME, organism-based; details: in vivo, read-out: Vdss
# [17] = AUC in Wistar rat at 3 mg/kg, iv or 10 mg/kg, po and measured up to 24 hrs by LC-MS/MS analysis; type: ADME, organism-based; parameters: dose 3 mg/kg, time < 24 hrs, route iv; details: in vivo
# [18] = Drug distribution in C57BL/6 mouse brain 10 mg/kg, po and measured at 2 hrs post dose by LC-MS/MS analysis; type: ADME, organism-based; details: read-out: Ct
# [19] = Clearance in Wistar rat at 3 mg/kg, iv or 10 mg/kg, po and measured up to 24 hrs by LC-MS/MS analysis; type: ADME, organism-based; details: in vivo
# [20] = Drug distribution in C57BL/6 mouse adipose tissue 10 mg/kg, po and measured at 8 hrs post dose by LC-MS/MS analysis; type: ADME, organism-based; details: read-out: Ct
# [21] = Cmax in Wistar rat at 3 mg/kg, iv or 10 mg/kg, po and measured up to 24 hrs by LC-MS/MS analysis; type: ADME, organism-based; parameters: dose 3 mg/kg, time < 24 hrs, route iv; details: in vivo
# [22] = Drug distribution in C57BL/6 mouse skeletal muscle 10 mg/kg, po and measured at 2 hrs post dose by LC-MS/MS analysis; type: ADME, organism-based, Skeletal muscle tissue; details: read-out: Ct
# [23] = Drug distribution in C57BL/6 mouse plasma 10 mg/kg, po and measured at 2 hrs post dose by LC-MS/MS analysis; type: ADME, organism-based
# [24] = Drug distribution in C57BL/6 mouse liver 10 mg/kg, po and measured at 2 hrs post dose by LC-MS/MS analysis; type: ADME, organism-based; details: read-out: Ct
# [25] = Drug distribution in C57BL/6 mouse adipose tissue 10 mg/kg, po and measured at 2 hrs post dose by LC-MS/MS analysis; type: ADME, organism-based; details: read-out: Ct
# [26] = Drug distribution in C57BL/6 mouse brain 10 mg/kg, po and measured at 1 hrs post dose by LC-MS/MS analysis; type: ADME, organism-based; details: read-out: Ct
# [27] = Drug distribution in C57BL/6 mouse plasma 10 mg/kg, po and measured at 8 hrs post dose by LC-MS/MS analysis; type: ADME, organism-based
# [28] = Drug distribution in C57BL/6 mouse liver 10 mg/kg, po and measured at 1 hrs post dose by LC-MS/MS analysis; type: ADME, organism-based; details: read-out: Ct
# [29] = Half life in Wistar rat at 3 mg/kg, iv or 10 mg/kg, po and measured up to 24 hrs by LC-MS/MS analysis; type: ADME, organism-based; details: in vivo
# [30] = Drug distribution in C57BL/6 mouse liver 10 mg/kg, po and measured at 8 hrs post dose by LC-MS/MS analysis; type: ADME, organism-based; details: read-out: Ct
# [31] = Drug distribution in C57BL/6 mouse skeletal muscle 10 mg/kg, po and measured at 1 hrs post dose by LC-MS/MS analysis; type: ADME, organism-based, Skeletal muscle tissue; details: read-out: Ct
# [32] = Oral bioavailability in C57BL/6 mouse 10 mg/kg or 3 mg/kg, iv and measured up to 24 hrs by LC-MS/MS analysis; type: ADME, organism-based; details: in vivo
# [33] = Apparent permeability across apical to basolateral side in MDCK cells at 2.5 uM for 90 mins; type: ADME, cell-based, Canis lupus familiaris; details: dog
# [34] = Oral bioavailability in Wistar rat at 10 mg/kg or 3 mg/kg, iv and measured up to 24 hrs by LC-MS/MS analysis; type: ADME, organism-based; details: in vivo
# [35] = Tmax in Wistar rat at 3 mg/kg, iv or 10 mg/kg, po and measured up to 24 hrs by LC-MS/MS analysis; type: ADME, organism-based; details: in vivo
# [36] = AUC in C57BL/6 mouse at 3 mg/kg, iv or 10 mg/kg, po and measured up to 24 hrs by LC-MS/MS analysis; type: ADME, organism-based; parameters: time < 24 hrs, dose 3 mg/kg, route iv; details: in vivo
# [37] = Half life in C57BL/6 mouse at 3 mg/kg, iv or 10 mg/kg, po and measured up to 24 hrs by LC-MS/MS analysis; type: ADME, organism-based; details: in vivo
# [38] = Volume of distribution at steady state in Wistar rat at 3 mg/kg, iv or 10 mg/kg, po and measured up to 24 hrs by LC-MS/MS analysis; type: ADME, organism-based; details: in vivo, read-out: Vdss
# [39] = Cmax in C57BL/6 mouse at 3 mg/kg, iv or 10 mg/kg, po and measured up to 24 hrs by LC-MS/MS analysis; type: ADME, organism-based; parameters: dose 3 mg/kg, time < 24 hrs, route iv; details: in vivo
# Sequence of CYP3A4 (P08684 whole entry): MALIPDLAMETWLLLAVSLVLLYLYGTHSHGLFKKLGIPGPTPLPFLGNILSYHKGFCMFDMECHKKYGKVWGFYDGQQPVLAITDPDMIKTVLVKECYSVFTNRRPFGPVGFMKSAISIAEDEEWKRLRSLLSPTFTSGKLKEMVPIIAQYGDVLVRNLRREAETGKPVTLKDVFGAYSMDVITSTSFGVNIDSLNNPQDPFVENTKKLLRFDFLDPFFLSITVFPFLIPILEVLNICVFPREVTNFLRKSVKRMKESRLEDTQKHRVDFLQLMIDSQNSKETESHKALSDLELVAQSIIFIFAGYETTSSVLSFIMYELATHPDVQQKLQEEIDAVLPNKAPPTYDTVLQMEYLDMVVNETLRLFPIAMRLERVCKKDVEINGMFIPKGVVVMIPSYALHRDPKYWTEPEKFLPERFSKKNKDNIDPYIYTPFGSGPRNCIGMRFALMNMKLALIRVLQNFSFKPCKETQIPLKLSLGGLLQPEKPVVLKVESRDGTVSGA
# Sequence of hERG (KCNH2) (Q12809 whole entry): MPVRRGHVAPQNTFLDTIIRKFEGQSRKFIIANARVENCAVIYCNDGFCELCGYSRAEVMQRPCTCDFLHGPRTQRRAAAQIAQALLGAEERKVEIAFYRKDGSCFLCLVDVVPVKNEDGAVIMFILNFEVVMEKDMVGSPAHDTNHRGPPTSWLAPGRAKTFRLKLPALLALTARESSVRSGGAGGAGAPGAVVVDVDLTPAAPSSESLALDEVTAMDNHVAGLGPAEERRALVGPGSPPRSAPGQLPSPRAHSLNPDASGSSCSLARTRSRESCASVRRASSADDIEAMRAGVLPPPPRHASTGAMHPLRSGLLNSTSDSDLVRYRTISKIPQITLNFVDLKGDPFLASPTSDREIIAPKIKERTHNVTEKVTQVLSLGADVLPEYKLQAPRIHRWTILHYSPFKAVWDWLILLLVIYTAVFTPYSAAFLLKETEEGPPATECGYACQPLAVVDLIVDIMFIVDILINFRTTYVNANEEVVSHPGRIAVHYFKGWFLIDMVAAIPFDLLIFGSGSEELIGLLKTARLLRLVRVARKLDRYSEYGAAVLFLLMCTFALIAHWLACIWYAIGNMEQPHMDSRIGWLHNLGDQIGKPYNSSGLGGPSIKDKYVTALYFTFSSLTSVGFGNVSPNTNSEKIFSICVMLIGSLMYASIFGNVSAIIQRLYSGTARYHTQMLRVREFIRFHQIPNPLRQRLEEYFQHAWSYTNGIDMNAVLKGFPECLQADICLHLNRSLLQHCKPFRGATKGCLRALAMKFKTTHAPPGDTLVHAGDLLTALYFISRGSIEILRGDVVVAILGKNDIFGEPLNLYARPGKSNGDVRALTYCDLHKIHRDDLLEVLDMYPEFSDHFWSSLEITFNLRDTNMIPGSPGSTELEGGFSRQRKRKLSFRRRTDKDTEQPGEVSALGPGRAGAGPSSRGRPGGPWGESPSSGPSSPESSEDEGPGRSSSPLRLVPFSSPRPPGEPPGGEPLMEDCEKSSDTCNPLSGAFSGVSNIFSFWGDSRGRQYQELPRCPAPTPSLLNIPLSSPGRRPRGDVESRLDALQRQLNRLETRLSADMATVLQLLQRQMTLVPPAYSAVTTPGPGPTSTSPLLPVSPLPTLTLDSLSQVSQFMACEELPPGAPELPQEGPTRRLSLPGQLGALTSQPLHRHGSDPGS
# Sequence of CYP2D6 (P10635 whole entry): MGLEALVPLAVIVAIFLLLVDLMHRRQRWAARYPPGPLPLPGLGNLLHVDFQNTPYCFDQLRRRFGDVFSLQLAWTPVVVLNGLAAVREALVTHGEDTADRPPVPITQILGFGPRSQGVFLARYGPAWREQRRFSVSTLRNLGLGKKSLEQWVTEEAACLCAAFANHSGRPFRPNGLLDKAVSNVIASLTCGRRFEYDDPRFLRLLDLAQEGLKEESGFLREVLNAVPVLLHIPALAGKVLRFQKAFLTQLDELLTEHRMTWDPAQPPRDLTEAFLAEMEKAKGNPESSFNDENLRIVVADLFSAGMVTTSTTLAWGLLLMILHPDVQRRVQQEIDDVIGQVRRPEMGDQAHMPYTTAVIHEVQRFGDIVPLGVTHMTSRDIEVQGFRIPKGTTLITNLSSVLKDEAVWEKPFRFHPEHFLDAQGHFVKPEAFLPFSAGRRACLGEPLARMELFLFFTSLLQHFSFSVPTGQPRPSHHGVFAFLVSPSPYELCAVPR
# Sequence of CYP2C9 (P11712 whole entry): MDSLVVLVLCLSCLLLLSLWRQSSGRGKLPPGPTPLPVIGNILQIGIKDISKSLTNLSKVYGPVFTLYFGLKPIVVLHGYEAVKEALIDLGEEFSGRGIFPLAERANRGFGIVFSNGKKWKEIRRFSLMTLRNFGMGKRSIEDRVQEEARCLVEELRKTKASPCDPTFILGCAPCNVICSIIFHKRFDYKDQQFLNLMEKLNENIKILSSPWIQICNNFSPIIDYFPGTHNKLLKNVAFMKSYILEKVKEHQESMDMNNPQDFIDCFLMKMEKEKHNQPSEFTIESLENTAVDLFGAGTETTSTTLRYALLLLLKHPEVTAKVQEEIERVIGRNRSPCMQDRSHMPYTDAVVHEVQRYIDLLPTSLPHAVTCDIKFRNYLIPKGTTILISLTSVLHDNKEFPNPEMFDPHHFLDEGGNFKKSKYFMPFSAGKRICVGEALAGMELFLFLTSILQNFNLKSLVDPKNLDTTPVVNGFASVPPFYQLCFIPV
compound,measurement,setting,value
O=C(Nc1ccc(C2CCC3(CC2)CC(C(=O)O)C3)cc1)c1nnc(Nc2ccc(F)c(F)c2)o1 (configuration not stated),inhibition at 25 µM,CYP2C9,24%
same,inhibition at 25 µM,CYP3A4,16%
same,inhibition at 25 µM,CYP1A2,18%
O=C([O-])CC1CCC2(CC1)CCN(c1ccc(NC(=O)c3nnc(Nc4ccc(F)c(F)c4)o3)cn1)CC2.[Na+],solubility at 4 h,[1],< 6 µM
same,solubility at 4 h,[2],8 µM
same,inhibition at 25 µM,CYP3A4,12%
same,solubility at 4 h,[3],< 6 µM
same,inhibition at 25 µM,CYP1A2,8%
same,inhibition at 10 µM,CYP2D6,7%
same,solubility at 4 h,[4],37 µM
O=C(O)CC1CCC2(CC1)CCC(c1ccc(NC(=O)c3nnc(Nc4ccc(F)c(F)c4)o3)cc1)CC2 (stereo in doubt; 8),"remaining at 0.5 h, 1 µM",[5],96%
same,"remaining at 0.5 h, 1 µM",[6],100%
same,IC50,[7],14.6 nM
same,"inhibition at 2 h, 10 µM",hERG (KCNH2),18%
same,fraction unbound,[8],< 0.01
same,"remaining at 0.5 h, 1 µM",[9],97%
same,fraction unbound,[10],0.01
O=C(O)CC1CCC2(CC1)CCN(c1ccc(NC(=O)c3nnc(Nc4ccc(F)c(F)c4)o3)cn1)CC2,"remaining at 0.5 h, 1 µM",[5],84%
same,"remaining at 0.5 h, 1 µM",[6],100%
same,clearance,[11],60 mL/min/kg
same,concentration at 1 h,[12],160 nM
same,concentration at 1 h,[13],1870 nM
same,Tmax,[14],0.25 h
same,concentration at 8 h,[15],10 nM
same,Vd,[16],13 L/kg
same,AUC at 24 h,[17],30 µM·h
same,concentration at 2 h,[18],10 nM
same,clearance,[19],3.3 mL/min/kg
same,concentration at 8 h,[20],10 nM
same,Cmax,[21],9200 nM
same,concentration at 2 h,[22],50 nM
same,concentration at 2 h,[23],1460 nM
same,concentration at 2 h,[24],54900 nM
same,concentration at 2 h,[25],150 nM
same,concentration at 1 h,[26],10 nM
same,concentration at 8 h,[27],60 nM
same,concentration at 1 h,[28],39200 nM
same,half-life,[29],3.1 h
same,concentration at 8 h,[30],22200 nM
same,concentration at 1 h,[31],100 nM
same,"inhibition at 2 h, 10 µM",hERG (KCNH2),10%
same,fraction unbound,[8],0.01
same,bioavailability,[32],41%
same,"Papp A→B at 1.5 h, 2.5 µM",[33],5.3 ×10⁻⁶ cm/s
same,bioavailability,[34],38%
same,Tmax,[35],1.4 h
same,"remaining at 0.5 h, 1 µM",[9],78%
same,AUC at 24 h,[36],1.6 µM·h
same,half-life,[37],5.7 h
same,Vd,[38],0.6 L/kg
same,Cmax,[39],1000 nM
same,fraction unbound,[10],0.01
